Tested on: optic nerve (retinal ganglion cell axons)
Assay: optic nerve transection after intravitreal injection, neurofilament Western blot
Type: in vivo, rat
Conditions: 5 μl of 100 mM intravitreal, 24 hours before transection; 4 days after transection
Description: FIG. 9 illustrates optic nerve transection after intravitreal injection of NAD biosynthetic substrates NAD, NMN, NmR, or Nam was injected into intravitreal compartment of left rat eye and allowed to incorporate retinal ganglion cells for 24 hours after which, left optic nerve was transected by eye enucleation and right and left optic nerves were collected at 4 days after transection and analyzed by Western blotting in which optic nerves transected from […] without any treatment prior to axotomy were used for negative control; showing in the figure, the quantitative analysis data of percentage of remaining neurofilament immunoreactivity from transected optic nerve relative to non-transected±S.D.
Administration of NAD biosynthetic substrates and optic Nerve transection. Nam, NMN, NmR, or NAD was dissolved in PBS at the concentration of 100 mM or 1 M. Each of 5 μl solution was injected into left intravitreal component under the anesthesia at a rate of […]. The left optic nerve was transected at 24 hours after intravitreal injection and optic nerve was recovered at indicated time. Optic nerve tissue was homogenized in 100 μl of a buffer containing 100 mM tris-HCl (pH 6.8), 1% SDS, and 1 mM DTT. Fifty μg of protein for each sample was analyzed by the Western blotting using anti-neurofilament antibody 2H3 (Developmental Studies Hybridoma Center) and peroxidase-conjugated secondary antibody (Jackson ImmunoResearch). The degeneration rate was calculated from the ratio of the neurofilament immunoreactivity of transected vs. contralateral nerves.
Transection of optic nerve is an in vivo model which can be used to investigate mechanisms leading to Wallerian degeneration and following retinal ganglion cell (RGC) death observed in human diseases such as glaucoma. In the C57BL/Wlds mouse strain, optic nerve degeneration during Wallerian degeneration after axotomy is dramatically slowed. In addition, intravitreal injection is used for screening of compounds that protect RGC axon from degeneration in vivo and thus we can asses the axon protective effect of each NAD biosynthetic substrates in vive by intraocular injection of compounds including NAD, NMN, NmR, and Nam. From in vitro Wallerian degeneration assay, 1 mM of NAD, NMN, and NmR in the culture media is enough to protect axon from degeneration. We initially injected 5 μl of 100 mM or 1 M NAD solution into left intravitreal compartment. After 24 hours incubation, left optic nerve was transected and control (right) and axotomized (left) optic nerve were collected at 3, 4, and 5 days after transection. Neurofilament immunoreactivity from the axotomized optic nerve was measured and normalized against the value obtained from the right side of the optic nerve.

`NC(=O)c1cccnc1` [Nam, nicotinamide] was tested, and the “neurofilament immunoreactivity of axotomized optic nerve, of non-axotomized optic nerve” value was “did not show any difference from the control animals”.

— patent US20160367497A1, “METHODS AND COMPOSITIONS FOR TREATING NEUROPATHIES” (Washington University, priority 2007, published 2016)
